In test [1] the test system is VEGF induced increases in intracellular calcium levels in HUVEC (human umbilical vein endothelial cells). In words: VEGF Stimulated Ca++ signal assay (FLIPR). It counts as cell-based. The settings on record: VEGF 5 ng/mL; for IC50: 0.01 to 10.0 μM. How it is done:
VEGF Stimulated Ca^++ Signal in vitro
Automated FLIPR (Fluorometric Imaging Plate Reader) technology was used to screen for inhibitors of VEGF induced increases in intracellular calcium levels in fluorescent dye loaded endothelial cells. HUVEC (human umbilical vein endothelial cells) (Clonetics) were seeded in 96-well fibronectin coated black-walled plates overnight @ 37° C./5%CO2. Cells were loaded with calcium indicator Fluo-4 for 45 minutes at 37° C. Cells were washed 4 times (Original Cell Wash, Labsystems) to remove extracellular dye. Test compounds were reconstituted in 100% DMSO and added to the cells to give a final DMSO concentration of 0.1%. For screening, cells were pre-incubated with test agents for 30 minutes, at a single concentration (10 μM) or at concentrations ranging from 0.01 to 10.0 μM followed by VEGF stimulation (5 ng/mL). Changes in fluorescence at 516 nm were measured simultaneously in all 96 wells using a cooled CCD camera. Data were generated by determining max-min fluorescence levels for unstimulated, stimulated, and drug treated samples. IC50 values for test compounds were calculated from % inhibition of VEGF stimulated responses in the absence of inhibitor.

Test [2] deals with T1, cytoplasmic domain of the human VEGF receptor (VEGFR-2) (Homo sapiens, UniProt P35968).
T1 construct: The cytoplasmic domain of the human VEGF receptor (VEGFR-2) was expressed as a Histidine-tagged fusion protein; His tag (Histidine-tagged fusion); made in house; host or cells: insect cells (engineered baculovirus)
In words: KDR Assay. Type of test: biochemical. The following applies: His-VEGFR-2, 3.6 μM ATP, poly-Glu-Tyr (4:1). How it is done:
The cytoplasmic domain of the human VEGF receptor (VEGFR-2) was expressed as a Histidine-tagged fusion protein following infection of insect cells using an engineered baculovirus. His-VEGFR-2 was purified to homogeneity, as determined by SDS-PAGE, using nickel resin chromatography. Kinase assays were performed in 96 well microtiter plates that were coated overnight with 30 μg of poly-Glu-Tyr (4:1) in 10 mM Phosphate Buffered Saline (PBS), pH 7.2-7.4. The plates were incubated with 1% BSA and then washed four times with PBS prior to starting the reaction. Reactions were carried out in 120 μL reaction volumes containing 3.6 μM ATP in kinase buffer (50 mM Hepes buffer pH 7.4, 20 mM MgCl2, 0.1 mM MnCl2 and 0.2 mM Na3VO4). Test compounds were reconstituted in 100% DMSO and added to the reaction to give a final DMSO concentration of 5%. Reactions were initiated by the addition 0.5 ng of purified protein. Following a ten minute incubation at 25° C., the reactions were washed four times with PBS containing 0.05% Tween-20. 100 μl of a monoclonal anti-phosphotyrosine antibody-peroxidase conjugate was diluted 1:10000 in PBS-Tween-20 and added to the wells for 30 minutes. Following four washes with PBS-Tween-20, 100 μl of 0-Phenylenediamine Dihydrochloride in Phosphate-citrate buffer, containing urea hydrogen peroxide, was added to the wells for 7 minutes as a colorimetric substrate for the peroxidase. The reaction was terminated by the addition of 100 μl of 2.5N H2SO4 to each well and read using a microplate ELISA reader set at 492 nm. IC50 values for compound inhibition were calculated directly from graphs of optical density (arbitrary units) versus compound concentration following subtraction of blank values.

[3] abbreviates: Homo sapiens, 10 μM, 30 min pre-incubation.

This is an account of results in patent US6559173B1, “3-(heteroarylamino)methylene-1,3-dihydro-2H-indol-2-ones as kinase inhibitors” (Allergan, Inc., priority 2001, dated 2003).

For orientation: IC50 means the concentration that inhibits the measured activity by half. By inhibition is commonly meant the relative decrease from the control value, in per cent.

A value given as a limit tells only on which side of the number the result lay.

T1 sequence (P35968 786-1356 limits assumed): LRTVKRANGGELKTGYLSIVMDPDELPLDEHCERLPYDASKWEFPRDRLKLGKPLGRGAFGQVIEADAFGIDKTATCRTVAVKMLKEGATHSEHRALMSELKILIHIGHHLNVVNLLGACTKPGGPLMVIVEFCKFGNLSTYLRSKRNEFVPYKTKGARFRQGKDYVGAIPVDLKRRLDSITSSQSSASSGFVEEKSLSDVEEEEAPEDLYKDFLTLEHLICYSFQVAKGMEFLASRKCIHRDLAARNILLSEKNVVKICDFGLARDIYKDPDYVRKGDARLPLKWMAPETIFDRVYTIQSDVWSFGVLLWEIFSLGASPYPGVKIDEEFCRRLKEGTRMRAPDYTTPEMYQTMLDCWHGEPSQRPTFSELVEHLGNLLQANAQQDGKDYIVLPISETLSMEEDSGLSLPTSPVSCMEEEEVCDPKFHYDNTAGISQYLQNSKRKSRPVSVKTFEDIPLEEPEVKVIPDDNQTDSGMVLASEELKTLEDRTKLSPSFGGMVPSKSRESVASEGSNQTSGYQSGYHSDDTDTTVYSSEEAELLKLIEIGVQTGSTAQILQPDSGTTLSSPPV

In the case of “3-[(1-H-Pyrazol-3 ylamino)methylene]-1,3-dihydro-indol-2-one [Example 1]”, the “VEGF Stimulated Ca++ signal assay % inhibition @10 μM” value in test [1] (10 μM, 30 min pre-incubation) is 92.8%. Besides, the IC50 in test [1] is 3 µM.
Turning to `O=C1Nc2ccccc2C1=CNc1cc(-c2ccccc2)[nH]n1` [Example 2, 3-[(5-Phenyl-H-pyrazol-3-ylamino)-methylene]-1,3-dihydro-indol-2-one], in test [1] (setting [3]), the inhibition at 10 µM came out at 90.5%. Moreover, the IC50 in test [1] (Homo sapiens) amounted to 1.33 µM; in test [2] it was 0.58 µM.
The corresponding values for `Cc1ccc(-c2cc(NC=C3C(=O)Nc4ccccc43)n[nH]2)cc1` [Example 3, 3-[(5-P-Tolyl-1H-pyrazol-3-ylamino)-methylene]-1,3-dihydro-indol-2-one] are 74%, 2.44 µM and 0.84 µM.
In the case of `O=C1Nc2ccccc2C1=CNc1cc(-c2ccco2)[nH]n1` [Example 4, 3-[(5-Furan-2-yl-1H-pyrazol-3-ylamino)-methylene]-1,3-dihydro-indol-2-one], the IC50 in test [1] was 0.7 µM; in test [1] (Homo sapiens) it was no more than 1 µM; in test [2] it was 0.85 µM. For the same compound, the inhibition at 10 µM in test [1] (setting [3]) amounted to 92.6%.
The corresponding values for `COc1ccc(Cc2cc(NC=C3C(=O)Nc4ccccc43)n[nH]2)cc1` [Example 5, 3-{[5-(4-Methoxy-benzyl)-1H-pyrazol-3-ylamino]-methylene}-1,3-dihydro-indol-2-one] are 0.5 µM, no more than 1 µM, 0.18 µM and 98%.
For `Cc1cccc2c1C(=CNc1cc(-c3ccco3)[nH]n1)C(=O)N2` [Example 7, 3-[(5-Furan-2-yl-1H-pyrazol-3-ylamino)-methylene]-4-methyl-1,3-dihydro-indol-2-one] the same measures were 0.92 µM, no more than 1 µM, 0.54 µM and 98.3%.
In the case of `Cc1cccc2c1C(=CNc1cc(-c3ccccc3)[nH]n1)C(=O)N2` [Example 8, 4-Methyl-3-[(5-phenyl-1H-pyrazol-3-ylamino)-methylene]-1,3-dihydro-indol-2-one], the inhibition at 10 µM in test [1] (setting [3]) stood at 64.5%. Further, the IC50 in test [1] (Homo sapiens) was found to be 3.17 µM; in test [2], 0.97 µM.
`O=C1Nc2ccc(Cl)cc2C1=CNc1cc[nH]n1` [Example 9, 5-Chloro-3-[(1H-pyrazol-3-ylamino)-methylene]-1,3-dihydro-indol-2-one]: the inhibition at 10 µM in test [1] (setting [3]) stood at 90%. In addition, the IC50 in test [1] (Homo sapiens) came to 6.14 µM; in test [2], 1.13 µM.
As for `O=C1Nc2ccc(Cl)cc2C1=CNc1cc(-c2ccco2)[nH]n1` [Example 10, 3-[(5-Furan-2-yl-1H-pyrazol-3-ylamino)-methylene]-5-chloro-1,3-dihydro-indol-2-one], in test [1] (setting [3]), the inhibition at 10 µM came out at 76%. The IC50 turned out to be 3.23 µM in test [1] (Homo sapiens) and 1.03 µM in test [2].
In the case of `O=C1Nc2ccccc2C1=CNc1n[nH]c(-c2ccccc2)c1Br` [Example 11, 3-[(4-Bromo-5-phenyl-1H-pyrazol-3-ylamino)-methylene]-1,3-dihydro-indol-2-one], the inhibition at 10 µM in test [1] (setting [3]) was determined as 23.4%.
As for `Cc1cccc2c1C(=CNc1n[nH]c(-c3ccccc3)c1Br)C(=O)N2` [Example 12, 3-[(4-Bromo-5-phenyl-1H-pyrazol-3-ylamino)-methylene]-4-methyl-1,3-dihydro-indol-2-one], the inhibition at 10 µM in test [1] (setting [3]) was -12.9%.
Still for that read-out and setting: the figure for `O=C1Nc2ccc(Cl)cc2C1=CNc1n[nH]c(-c2ccccc2)c1Br` [Example 13, 3-[(4-Bromo-5-phenyl-1H-pyrazol-3-ylamino)-methylene]-5chloro-1,3-dihydro-indol-2-one] is -19.1%; for `O=C1Nc2ccc(Cl)cc2C1=CNc1cc(-c2ccccc2)[nH]n1` [Example 14, 5-Chloro-3-[(5-phenyl-1H-pyrazol-3-ylamino)-methylene]-1,3-dihydro-indol-2-one] it is 27.4%; for `O=C1Nc2ccccc2C1=CNc1n[nH]c2cccc(F)c12` [Example 15, 3-[(4-Fluoro-1H-indazol-3-ylamino)-methylene]-1,3-dihydro-indol-2-one] it is 6.16%.
Same read-out and setting: for `COc1ccc(-c2c(C)n[nH]c2NC=C2C(=O)Nc3ccccc32)cc1OC` [Example 16, 3-{[4-(3,4-Dimethoxy-phenyl)-5-methyl-2H-pyrazol-3-ylamino]-methylene}-1,3-dihydro-indol-2-one] the value was -1.47%; for `CCOC(=O)c1c[nH]nc1NC=C1C(=O)Nc2ccccc21` [Example 17, 3-[(2-Oxo-1,2-dihydro-indol-3-ylidenemethyl)-amino]-1H-pyrazole-4-carboxylic acid ethyl ester], 27.2%.
The same measure, in the same setting: the figure for `CSc1[nH]nc(NC=C2C(=O)Nc3ccccc32)c1C#N` [Example 18, 5-Methylsulfanyl-3-[(2-oxo-1,2-dihydro-indol-3-ylidenemethyl)-amino]-1H-pyrazole-4-carbonitrile] is 14.1%; for `O=C1Nc2ccccc2C1=CNc1n[nH]cc1C(=O)O` [Example 19, 3-[(2-Oxo-1,2-dihydro-indol-3-ylidenemethyl)-amino]-1H-pyrazole-4-carboxylic acid] it is -0.89%.
In the case of `N#Cc1c[nH]nc1NC=C1C(=O)Nc2ccccc21` [Example 20, 3-[(2-Oxo-1,2-dihydro-indol-3-ylidenemethyl)-amino]-1H-pyrazole-4-carbonitrile], in test [1] (setting [3]), the inhibition at 10 µM came to 35.8%.
As for `O=C1Nc2ccccc2C1=CNc1n[nH]cc1Br` [Example 21, 3-[(4-Bromo-1H-pyrazol-3-ylamino)-methylene]-1,3-dihydro-indol-2-one], the inhibition at 10 µM in test [1] (setting [3]) stood at 32.1%.
`COC(=O)c1ccc(-c2cc(NC=C3C(=O)Nc4ccccc43)n[nH]2)cc1` [Example 24, 4-{5-[(2-Oxo-1,2-dihydro-indol-3-ylidenemethyl)-amino]-2H-pyrazol-3-}-benzoic acid methyl ester]: the inhibition at 10 µM in test [1] (setting [3]) came to 56.9%. The IC50 in test [1] (Homo sapiens) was no less than 10 µM.
Take `Cc1cc(C)c2c(NC=C3C(=O)Nc4ccccc43)n[nH]c2n1` [Example 25, 3-[(4,6-Dimethyl-1H-pyrazolo[3,4-b]pyridin-3-ylamino)-methylene]-1,3-dihydro-indol-2-one]: the inhibition at 10 µM in test [1] (setting [3]) turned out to be 15.1%.
The same measure, in the same setting: the figure for `COc1ccc(-c2cc(NC=C3C(=O)Nc4ccccc43)[nH]n2)cc1` [Example 30, 3-{[5-(4-Methoxy-phenyl)2H-pyrazol-3-ylamino]-methylene}-1,3-dihydro-indol-2-one] is 12.3%.
The same measure, in the same setting: the figure for `O=C1Nc2ccccc2C1=CNc1cc(-c2cc(OCc3ccccc3)cc(OCc3ccccc3)c2)n[nH]1` [Example 31, 3-{[5-(3,5-Bis-benzyloxy-phenyl)-2H-pyrazol-3-ylamino]-methylene}-1,3-dihydro-indol-2-one] is -12.9%.
On to `Cc1ccc(-c2cc(NC=C3C(=O)Nc4ccccc43)[nH]n2)c(C)c1` [Example 34, 3-{[5-(2,4-Dimethyl-phenyl)2H-pyrazol-3-ylamino]-methylene}-1,3-dihydro-indol-2-one], for which the inhibition at 10 µM in test [1] (setting [3]) was 58.8%. In test [1] (Homo sapiens), the IC50 stood at 7.64 µM.
`Cc1cccc(Cc2cc(NC=C3C(=O)Nc4ccccc43)[nH]n2)c1` [Example 39, 3-{[5-(3-Methyl-benzyl)-2H-pyrazol-3-ylamino]-methylene}-1,3-dihydro-indol-2-one]: the inhibition at 10 µM in test [1] (setting [3]) is -12.6%.
The same measure, in the same setting: for `O=C1Nc2ccccc2C1=CNc1cc(Cc2ccccc2)n[nH]1` [Example 40, 3-[(5-Benzyl-2H-pyrazol-3-ylamino)-methylene]-1,3-dihydro-indol-2-one] the value was -0.03%.
As to `Cc1cc(NC=C2C(=O)Nc3cc(F)ccc32)n[nH]1` [Example 49, 6-Fluoro-3-[(5-methyl-1H-pyrazol-3-ylamino)-methylene]-1,3-dihydro-indol-2-one], the IC50 in test [2] came out at 0.57 µM.
